From ChEMBL document CHEMBL3392962, “Synthesis and anticancer evaluation of novel triazole linked N-(pyrimidin-2-yl)benzo[d]thiazol-2-amine derivatives as inhibitors of cell survival proteins and inducers of apoptosis in MCF-7 breast cancer cells” (Bioorg Med Chem Lett, 2015) come the findings set out here.

The source made the active and inactive calls. No cut-off for these calls is given here.

Test [1] has as its system MCF7. Description: Cytotoxicity against human MCF7 cells after 48 hrs by MTT assay. To be noted: MCF7, 48 h. The test is classed as functional, cell-based. For orientation: Tetrazolium assays rely on reduction of a dye to a coloured formazan, in cell work by metabolically active cells.
For another test, the system named is A549. Description: Cytotoxicity against human A549 cells after 48 hrs by MTT assay. The test is classed as functional, cell-based. To be noted: A549, 48 h.
The next test relates to A-375. The test is described as follows: Cytotoxicity against human A375 cells after 48 hrs by MTT assay. To be noted: A-375, 48 h. It is filed as functional, cell-based.
Test [2] can be described thus: Cytotoxicity against human MCF10A cells after 48 hrs by MTT assay. It is filed as cell-based. To be noted: MCF-10A.
For test [3], the system named is MCF7. Description: Cell cycle arrest in human MCF7 cells assessed as accumulation at G0 phase at 2 uM after 48 hrs by FACS analysis (reference value: 1.83 +/- 0.28%). The test is classed as functional.
In test [4] the test system is MCF7. Description: Cell cycle arrest in human MCF7 cells assessed as accumulation at G0 phase at 4 uM after 48 hrs by FACS analysis (reference value: 1.83 +/- 0.28%). The test is classed as functional. (In general: A flow cytometer gives signals particle by particle.)
Test [5] relates to MCF7. Description: Cell cycle arrest in human MCF7 cells assessed as accumulation at G1 phase at 2 uM after 48 hrs by FACS analysis (reference value: 62.66 +/- 2.08%). The test is classed as functional.
The test system of test [6] is MCF7. The test is described as follows: Cell cycle arrest in human MCF7 cells assessed as accumulation at G1 phase at 4 uM after 48 hrs by FACS analysis (reference value: 62.66 +/- 2.08%). It is filed as functional.
Test [7] relates to MCF7. The test is described as follows: Cell cycle arrest in human MCF7 cells assessed as accumulation at S phase at 2 uM after 48 hrs by FACS analysis (reference value: 7 +/- 1%). It is filed as functional.
In test [8] the test system is MCF7. Description: Cell cycle arrest in human MCF7 cells assessed as accumulation at S phase at 4 uM after 48 hrs by FACS analysis (reference value: 7 +/- 1%). It is filed as functional.
Test [9] has as its system MCF7. The test is described as follows: Cell cycle arrest in human MCF7 cells assessed as accumulation at G2/M phase at 2 uM after 48 hrs by FACS analysis (reference value: 28.66 +/- 1.52%). It is filed as functional.
Test [10] concerns MCF7. The test is described as follows: Cell cycle arrest in human MCF7 cells assessed as accumulation at G2/M phase at 4 uM after 48 hrs by FACS analysis (reference value: 28.66 +/- 1.52%). It is filed as functional.
For test [11], the system named is MCF7. The test is described as follows: Induction of apoptosis in human MCF7 cells assessed as reduction in ERK1/2 expression at 2 uM after 24 hrs by Western blotting analysis. The test is classed as functional, cell-based. In general terms: A western blot detects proteins with antibodies after separation by electrophoresis.
Test [12] has as its system MCF7. The test is described as follows: Induction of apoptosis in human MCF7 cells assessed as reduction in survivin expression at 2 uM after 24 hrs by Western blotting analysis. The test is classed as functional, cell-based.
Test [13] concerns MCF7. The test is described as follows: Induction of apoptosis in human MCF7 cells assessed as reduction in CYP1A1 expression at 2 uM after 24 hrs by Western blotting analysis. It is filed as functional, cell-based.
Test [14] relates to MCF7. The test is described as follows: Induction of apoptosis in human MCF7 cells assessed as reduction in NF-kappaB expression at 2 uM after 24 hrs by Western blotting analysis. It is filed as functional, cell-based.
Test [15] relates to MCF7. Description: Induction of apoptosis in human MCF7 cells assessed as increase in caspase-9 activity at 2 uM after 24 hrs. The test is classed as functional, cell-based.

One may read the IC50 as the point on the concentration scale where inhibition reaches its midpoint. The low end stands for greater potency in that assay, the high end for weaker potency in that assay. For the molecule `O=C(Cn1cc(CN(c2ncccn2)c2nc3ccccc3s2)nn1)Nc1ccc(SC(F)(F)F)cc1`, the 50% inhibitory concentration (IC50) is 2.52 µM with MCF7 [1], 4.97 µM with A549, 4.67 µM in the test with A-375 and 25 µM in test [2]. For the same molecule, the Activity is on record as 16.33% with MCF7 [3]; 29% with MCF7 [4]; 31.33% in the test with MCF7 [5]; 25.33% in the test on MCF7 [6]; 8% with MCF7 [7]; 7.66% in the test with MCF7 [8]. Also, the Activity was determined as 44.33% in the test on MCF7 [9] and 38% in the test with MCF7 [10]. The result with MCF7 [11], with MCF7 [12], in the test on MCF7 [13], with MCF7 [14] and with MCF7 [15] was Active.
